Data published in patent US11760979B2, “Isolated liver cancer stem cell and method for drug screening thereof” (LICENSE BIOTECHNOLOGY Co., Ltd., priority 2020, dated 2023).
Entries after “also recorded” stand apart in the source; their conditions may differ.

Tests used:
TW-1 cell line [1] = test: In vitro drug screening test (cell survival rate); format: cell-based, rat
Description: (§1) The purpose of the method of drug screening is to evaluate the inhibitory ability of the active ingredients of currently used anticancer drugs against the growth, recurrence, or metastasis of TW-1 cell line, and HTC cell line was used as control group. The active ingredient of anticancer drug be used in the embodiment was Sorafenib.
TW-1 cell line and HTC cell line were seeded in 96-well plate with 2×10^5 cells/well, 1 μM, 5 μM, 10 μM, 20 μM and 40 μM of Sorafenib were respectfully used for treating cells once the cells were attached, and the negative control group cells were treated with PBS.

TW-1 cell line [2] = test: In vivo drug screening test, TW-1 cell line transplanted subcutaneously; set-up: species or system BALB/cAnN.Cg-Foxnl^nu/CrlNarl nude mice; conditions: nude mice
Description: as §1, with “BALB/cAnN.Cg-Foxnl^nu/CrlNarl nude mice were” for “HTC cell line was”, “the animal model.” for “control group.”
BALB/cAnN.Cg-Foxnl^nu/CrlNarl nude mice were grouped into 3 groups, control group (Control), low-dose Sorafenib group (10 mg/kg body weight (BD)) and high-dose Sorafenib group (50 mg/kg body weight (BD)), 5 mice in each group.
Transplanting of TW-1 cell line into BALB/cAnN.Cg-Foxnl^nu/CrlNarl nude mice were processed with 5×10^5 cells by subcutaneous injection for evaluating the effect of anticancer drugs against TW-1 cell line.
After the tumor grew to appropriate size (100-150 mm^3) that was able to be measured at the TW-1 cell line transplanted position, the mice were treated with Sorafenib (Sorafenib groups) or PBS (control group) once per three days, and tumor generation of the mice were measured for 30 days the tumor volume of mice were recorded once per five days.

CNC(=O)c1cc(Oc2ccc(NC(=O)Nc3ccc(Cl)c(C(F)(F)F)c3)cc2)ccn1 [Sorafenib]
cell growth (TW-1 cell line [1]; 40 μM Sorafenib, 24 and 48 hours post-treatment): the cell growth was decreased; also recorded: had the ability to inhibit growth of TW-1 cell line, but TW-1 cell line was not killed | sensitivity to Sorafenib (cell survival rate), TW-1 cell line compared with HTC cell line (TW-1 cell line [1]; concentration lower than 10 μM, after treatment for 24 hours, HTC cell line as control): higher sensitivity | drug tolerance of TW-1 cell line compared with HTC cell lines (TW-1 cell line [1]; high concentration (up to 40 μM), more obvious after 48 hours post-treatment): much higher drug tolerance | tumor volume of high-dose Sorafenib group vs low-dose Sorafenib group (TW-1 cell line [2]; 50 mg/kg vs 10 mg/kg body weight, once per three days, 30 days): significantly higher than that in low-dose Sorafenib group mice | tumor volume of Sorafenib treating groups vs control group (TW-1 cell line [2]; 10 and 50 mg/kg body weight, once per three days, measured for 30 days): significantly higher than that in control group | metastasis of TW-1 cell line to lung (TW-1 cell line [2]; high-dose Sorafenib (50 mg/kg body weight), drug dependent): high-dose Sorafenib induced high metastasis
